Data from US12655116B2, “Substituted isophthalic acid diamides” (Bayer Aktiengesellschaft, priority 2020, dated 2026).

How the values were obtained:
ABUTH [1] = experiment: Pre-emergence herbicidal action against ABUTH; format: in vivo, Abutilon theophrasti
Summary of the method: (§1)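 Greenhouse pots of sandy loam held seeds covered with soil, onto which the compound was applied before emergence. An aqueous suspension or emulsion of WP or EC was used at 600 to 800 l/ha with 0.2% wetting agent. Percent damage was judged visually at 3 weeks.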

ALOMY = experiment: Pre-emergence herbicidal action against ALOMY; format: in vivo, Alopecurus myosuroides; settings: pre-emergence
Summary of the method: as §1

AMARE [2] = experiment: Pre-emergence herbicidal action against AMARE; format: in vivo, Amaranthus retroflexus
Summary of the method: as §1

AVEFA = experiment: Pre-emergence herbicidal action against AVEFA; format: in vivo, Avena fatua; settings: 80 g/ha, pre-emergence
Summary of the method: as §1

ECHCG [3] = experiment: Pre-emergence herbicidal action against ECHCG; format: in vivo, Echinochloa crus-galli
Summary of the method: as §1

LOLRI = experiment: Pre-emergence herbicidal action against LOLRI; format: in vivo, Lolium rigidum; settings: 80 g/ha
Summary of the method: as §1

MATIN [4] = experiment: Pre-emergence herbicidal action against MATIN; format: in vivo, Matricaria inodora
Summary of the method: as §1

PHBPU [5] = experiment: Pre-emergence herbicidal action against PHBPU; format: in vivo, Pharbitis purpurea
Summary of the method: as §1

POLCO = experiment: Pre-emergence herbicidal action against POLCO; format: in vivo, Polygonum convolvulus
Summary of the method: as §1

SETVI [6] = experiment: Pre-emergence herbicidal action against SETVI; format: in vivo, Setaria viridis
Summary of the method: as §1

VERPE [7] = experiment: Pre-emergence herbicidal action against VERPE; format: in vivo, Veronica persica; settings: dosage 80 g/ha
Summary of the method: as §1

VIOTR [8] = experiment: Pre-emergence herbicidal action against VIOTR; format: in vivo, Viola tricolor
Summary of the method: as §1

DIGSA [9] = experiment: Pre-emergence herbicidal action against DIGSA; format: in vivo, Digitaria sanguinalis
Summary of the method: as §1

ABUTH [10] = experiment: Post-emergence herbicidal action against ABUTH; format: in vivo, Abutilon theophrasti; settings: visual assessment about 3 weeks after treatment vs untreated controls
Summary of the method: (§2)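 A WP or EC formulation diluted in water with 0.2% wetting agent was sprayed at 600 to 800 l/ha onto one-leaf-stage plants grown in sandy loam. About 3 weeks later, action was rated visually in percent, 100% being dead plants.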

AMARE [11] = experiment: Post-emergence herbicidal action against AMARE; format: in vivo, Amaranthus retroflexus; settings: 20 g/ha, visual assessment about 3 weeks after treatment, 100% = plants have died, 0% = like control plants
Summary of the method: as §2

ECHCG [12] = experiment: Post-emergence herbicidal action against ECHCG; format: in vivo, Echinochloa crus-galli; settings: dosage 20 g/ha
Summary of the method: as §2

MATIN [13] = experiment: Post-emergence herbicidal action against MATIN; format: in vivo, Matricaria inodora; settings: dosage 20 g/ha
Summary of the method: as §2

PHBPU [14] = experiment: Post-emergence herbicidal action against PHBPU; format: in vivo, Pharbitis purpurea
Summary of the method: as §2

SETVI [15] = experiment: Post-emergence herbicidal action against SETVI; format: in vivo, Setaria viridis
Summary of the method: as §2

VERPE [16] = experiment: Post-emergence herbicidal action against VERPE; format: in vivo, Veronica persica
Summary of the method: as §2

VIOTR [17] = experiment: Post-emergence herbicidal action against VIOTR; format: in vivo, Viola tricolor
Summary of the method: as §2

DIGSA [18] = experiment: Post-emergence herbicidal action against DIGSA; format: in vivo, Digitaria sanguinalis
Summary of the method: as §2

[19] = 80 g/ha, scored visually after 3 weeks vs untreated controls (100% = plants have died, 0% = like control plants)

Cn1nnnc1NC(=O)c1ccc(C(F)(F)F)c(C(=O)NCC2CC2)c1C1CC1 [Example 1-289]
80%: Pre-emergence action against AVEFA in % (AVEFA) | Pre-emergence action against ECHCG in % (ECHCG [3]; 20 g/ha) | Pre-emergence action against LOLRI in % (LOLRI) | Pre-emergence action against PHBPU in % (PHBPU [5]; dosage 80 g/ha) | Pre-emergence action against POLCO in % (POLCO; dosage 80 g/ha) | Pre-emergence action against SETVI in % (SETVI [6]; dosage 80 g/ha) | Post-emergence action against ABUTH in % (ABUTH [10]; dosage 5 g/ha) | Post-emergence action against ABUTH in % (ABUTH [10]; dosage 20 g/ha) | Post-emergence action against ECHCG in % (ECHCG [12]) | Post-emergence action against MATIN in % (MATIN [13]) | Post-emergence action against PHBPU in % (PHBPU [14]; dosage 5 g/ha) | Post-emergence action against SETVI in % (SETVI [15]; dosage 5 g/ha) | Post-emergence action against VERPE in % (VERPE [16]; 5 g/ha) | Post-emergence action against VIOTR in % (VIOTR [17]; 5 g/ha)
100%: Pre-emergence action against ABUTH (herbicidal activity) (ABUTH [1]; [19]) | Pre-emergence action against ABUTH (herbicidal activity in percent) (ABUTH [1]; dosage 20 g/ha, scored visually after 3 weeks vs untreated controls, 100% = plants have died, 0% = like control plants) | Pre-emergence action against AMARE in % (AMARE [2]; [19]) | Pre-emergence action against ECHCG in % (ECHCG [3]; 80 g/ha) | Pre-emergence action against MATIN in % (MATIN [4]; dosage 80 g/ha) | Pre-emergence action against VERPE in % (VERPE [7]) | Pre-emergence action against VIOTR in % (VIOTR [8]; dosage 20 g/ha) | Pre-emergence action against VIOTR in % (VIOTR [8]; dosage 80 g/ha) | Pre-emergence action against DIGSA in % (DIGSA [9]; dosage 20 g/ha) | Pre-emergence action against DIGSA in % (DIGSA [9]; dosage 80 g/ha)
90%: Pre-emergence action against ALOMY (herbicidal activity) (ALOMY; [19]) | Pre-emergence action against AMARE in % (AMARE [2]; 20 g/ha, scored visually after 3 weeks vs untreated controls, 100% = plants have died, 0% = like control plants) | Pre-emergence action against MATIN in % (MATIN [4]; dosage 20 g/ha) | Post-emergence action at 20 g/ha against AMARE in % (AMARE [11]) | Post-emergence action against PHBPU in % (PHBPU [14]; dosage 20 g/ha) | Post-emergence action against SETVI in % (SETVI [15]; dosage 20 g/ha) | Post-emergence action against VERPE in % (VERPE [16]; 20 g/ha) | Post-emergence action against VIOTR in % (VIOTR [17]; 20 g/ha) | Post-emergence action against DIGSA in % (DIGSA [18]; 5 g/ha) | Post-emergence action against DIGSA (DIGSA [18]; 20 g/ha)

CCc1c(C(=O)Nc2nnnn2CC)ccc(C(F)F)c1C(=O)NC1CC1 [Example 2-279]
80%: pest or weed control at 20 g/ha (ABUTH [1]; Abutilon theophrasti, 504 h, dosage 20 g/ha, scored visually after 3 weeks vs untreated controls, 100% = plants have died, 0% = like control plants, read-out: Pre-emergence action against ABUTH (herbicidal activity in percent)) | pest or weed control at 20 g/ha (ALOMY; Alopecurus myosuroides, 504 h, 20 g/ha, scored visually after 3 weeks, 100% = plants have died, 0% = like control plants) | pest or weed control at 80 g/ha (LOLRI; Lolium rigidum, 504 h) | pest or weed control at 20 g/ha (PHBPU [5]; Ipomoea purpurea, 504 h, dosage 20 g/ha) | pest or weed control at 20 g/ha (POLCO; Fallopia convolvulus, 504 h, dosage 20 g/ha) | pest or weed control at 20 g/ha (SETVI [6]; Setaria viridis, 504 h, dosage 20 g/ha) | pest or weed control at 20 g/ha (ABUTH [10]; Abutilon theophrasti, 504 h, dosage 20 g/ha) | pest or weed control at 20 g/ha (MATIN [13]; Tripleurospermum inodorum, 504 h) | pest or weed control at 5 g/ha (VIOTR [17]; Viola tricolor, 504 h, 5 g/ha)
100%: pest or weed control at 80 g/ha (ABUTH [1]; Abutilon theophrasti, 504 h, 80 g/ha, scored visually after 3 weeks vs untreated controls (100% = plants have died, 0% = like control plants)) | pest or weed control at 20 g/ha (AMARE [2]; Amaranthus retroflexus, 504 h, 20 g/ha, scored visually after 3 weeks vs untreated controls, 100% = plants have died, 0% = like control plants) | pest or weed control at 80 g/ha (AMARE [2]; Amaranthus retroflexus, 504 h, 80 g/ha, scored visually after 3 weeks vs untreated controls, 100% = plants have died, 0% = like control plants) | pest or weed control at 80 g/ha (AVEFA; Avena fatua, 504 h) | pest or weed control at 80 g/ha (ECHCG [3]; Echinochloa crus-galli, 504 h, 80 g/ha) | pest or weed control at 80 g/ha (MATIN [4]; Tripleurospermum inodorum, 504 h, dosage 80 g/ha) | pest or weed control at 80 g/ha (SETVI [6]; Setaria viridis, 504 h, dosage 80 g/ha) | pest or weed control at 20 g/ha (VIOTR [8]; Viola tricolor, 504 h, dosage 20 g/ha) | pest or weed control at 80 g/ha (VIOTR [8]; Viola tricolor, 504 h, dosage 80 g/ha) | pest or weed control at 80 g/ha (DIGSA [9]; Digitaria sanguinalis, 504 h, dosage 80 g/ha) | pest or weed control at 20 g/ha (AMARE [11]; Amaranthus retroflexus, 504 h)
90%: pest or weed control at 80 g/ha (ALOMY; Alopecurus myosuroides, 504 h, 80 g/ha, scored visually after 3 weeks vs untreated controls (100% = plants have died, 0% = like control plants)) | pest or weed control at 20 g/ha (MATIN [4]; Tripleurospermum inodorum, 504 h, dosage 20 g/ha) | pest or weed control at 80 g/ha (PHBPU [5]; Ipomoea purpurea, 504 h, dosage 80 g/ha) | pest or weed control at 80 g/ha (POLCO; Fallopia convolvulus, 504 h, dosage 80 g/ha) | pest or weed control at 80 g/ha (VERPE [7]; Veronica persica, 504 h) | pest or weed control at 20 g/ha (DIGSA [9]; Digitaria sanguinalis, 504 h, dosage 20 g/ha) | pest or weed control at 20 g/ha (ECHCG [12]; Echinochloa crus-galli, 504 h) | pest or weed control at 20 g/ha (VERPE [16]; Veronica persica, 504 h, 20 g/ha) | pest or weed control at 20 g/ha (VIOTR [17]; Viola tricolor, 504 h, 20 g/ha) | pest or weed control at 5 g/ha (DIGSA [18]; Digitaria sanguinalis, 504 h, 5 g/ha) | pest or weed control at 20 g/ha (DIGSA [18]; Digitaria sanguinalis, 504 h, 20 g/ha)
